Source: US7560279B2, “Method of proliferating human hepatocytes and method for obtaining human hepatocytes” (Hiroshima Industrial Promotion Organization, priority 2002, dated 2009)

Key:
human complement (hC3a) = assay: Human complement (hC3a) in blood of chimeric mice by ELISA; type: in vivo, mouse; details: administered vs non-administered chimeric mice
Protocol: Further, concentration of the human complement (hC3a) in blood of chimeric mice administered or non-administered with the complement inhibitor (Futhan®) was measured by ELISA method. In consequence, it was confirmed that hC3a concentration was lower in chimeric mice administered with the complement inhibitor compared with non-administered mice (FIG. 4).

CYP2C9 = system: T1, CYP2C9; assay: Diclofenac 4-hydroxylation activity in mouse liver microsomes; type: in vivo; details: liver microsomes of uPA(-/-)/SCID mouse
T1 construct: to check activity of CYP2C9 in the microsomal fraction sampled from a mouse; from tissue; host or cells: liver microsomal fraction of human-hepatocyte-transplanted chimeric mice (uPA/SCID); donor (human) microsome as comparison
Protocol: Further, to check activity of CYP2C9 in the microsomal fraction sampled from a mouse, diclofenac 4-hydroxylation activity was measured by adding diclofenac to the microsome. In consequence, diclofenac 4-hydroxylation activity was little detected in the uPA(−/−)/SCID mouse, and induction of activity by administration of a complement inhibitor was not observed also. […] In a chimeric mouse with 89% of replacement ratio, diclofenac 4-hydroxylation activity was confirmed higher than that of donor (human) microsome (FIG. 9).

[1] = system: human complement produced by human hepatocytes; assay: Complement inhibitor given to human-hepatocyte chimeric mice: survival; type: in vivo, mouse; details: 200 μl of 2 mg/ml, every 2 days to twice a day; human albumin in blood exceeded 3 mg/ml
Protocol: Also, human hepatocytes in the mouse liver tissue were stained immunologically using an anti-human complement C3 antibody, and presence of a complement C3 in human hepatocytes was confirmed. Therefore, 200 μl of a complement inhibitor (Futhan®) with concentration of 2 mg/ml was administered into the mouse with increased human albumin concentration. Administration frequency was started from once per 2 days. Change in body weight was checked every day, and administration frequency or dose was increased when decrease in body weight was observed (FIG. 3). As the results, the mice with human albumin concentration in blood over 2 mg/ml received the complement inhibitor (Futhan®) every 2 days, and those over 4 mg/ml received every day, and further, those over 6 mg/ml received twice a day (FIG. 3).

human hepatocytes = assay: Human albumin in blood of chimeric mice (ELISA); type: in vivo; details: 60 mg/kg intraperitoneally before transplantation; compared with chimeric uPA-Tg(+/+)/SCID mouse
Protocol: From 1 week after transplantation of human hepatocytes, 10 μl blood samples were taken from the tail of a mouse once or twice per a week, and concentration of human albumin was measured using Quantitative ELISA immunoassay (Bethyl Laboratories Inc.).
Then, the uPA-Tg(+/−)/SCID and the uPA-Tg(+/+)/SCID mice, which were inoculated with 60 mg/kg of retrorsine intraperitoneally, were transplanted with human hepatocytes similarly as in Example 1 to prepare chimeric mice.
As to one chimeric mouse prepared in Example 1, at 100 days after transplantation of human hepatocytes, an anti-mouse Fas antibody which leads mouse hepatocytes to apoptosis by reaction with a Fas antigen thereof was inoculated (0.2 μg/g body weight) into the abdominal cavity of said chimeric mouse twice at the interval of 1 week.

[2] = system: normalized mouse hepatocytes; assay: Growth inhibition of normalized mouse hepatocytes in uPA-Tg/SCID mice; type: in vivo; details: 30 or 60 mg/kg intraperitoneally
Protocol: Retrorsine was inoculated intraperitoneally in the amount of 30 or 60 mg/kg into a uPA-Tg(+/−)/SCID mouse and a uPA-Tg(+/+)/SCID mouse. As the result, number of colonies of normalized hepatocytes caused by deletion of introduced uPA gene (uPA-Tg(−/−)/SCID) was reduced in the uPA-Tg(+/−)/SCID mouse (FIG. 12).

T1 sequence (P11712 whole entry): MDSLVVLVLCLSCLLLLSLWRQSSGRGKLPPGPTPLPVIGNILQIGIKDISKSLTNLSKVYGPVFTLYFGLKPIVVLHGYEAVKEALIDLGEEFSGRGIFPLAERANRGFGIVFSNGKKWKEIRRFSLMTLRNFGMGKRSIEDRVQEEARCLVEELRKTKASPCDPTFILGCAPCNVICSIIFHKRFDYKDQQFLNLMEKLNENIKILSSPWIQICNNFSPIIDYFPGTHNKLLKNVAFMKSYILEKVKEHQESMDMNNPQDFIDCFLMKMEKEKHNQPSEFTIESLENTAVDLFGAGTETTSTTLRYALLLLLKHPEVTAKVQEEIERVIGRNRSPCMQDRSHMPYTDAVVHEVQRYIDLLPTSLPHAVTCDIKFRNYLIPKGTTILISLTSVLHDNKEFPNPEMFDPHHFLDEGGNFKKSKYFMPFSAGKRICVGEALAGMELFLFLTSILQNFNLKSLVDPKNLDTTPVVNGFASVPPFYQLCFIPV

Compound | hC3a concentration in blood (human complement (hC3a)) | induction of diclofenac 4-hydroxylation activity (CYP2C9) | survival of chimeric mouse [1] | human albumin concentration in blood of chimeric uPA-Tg(+/-)/SCID mouse (human hepatocytes) | number of colonies of normalized hepatocytes caused by deletion of introduced uPA gene [2]
N=C(N)c1ccc2cc(OC(=O)c3ccc(N=C(N)N)cc3)ccc2c1 [Futhan, nafamostat mesilate] | lower | not observed | could live for long period |  | 
retrorsine |  |  |  | increased to the same level | reduced
